Source: US8283291B2, “Herbicidal composition” (Kumiai Chemical Industry Co., Ltd., priority 2006, dated 2012)

Legend:
common chickweed (STEME) [1] = assay: Test 3 on herbicidal effects against weeds and phytotoxicity by upland soil treatment; format: in vivo, Stellaria media; conditions: 28th day
Excerpt: (§1) In a plastic pot of 14 cm in length×23 cm in width×8 cm in depth, upland soil was filled, and seeds of soybean (GLXMA), corn (ZEAMX), Ipomoea lacunosa L. (IPOLA) and velvetleaf (ABUTH) were sown and covered with soil. A wettable powder prepared in accordance with Formulation Example 1 was weighed so that the active ingredients became the prescribed amounts, diluted with water and uniformly applied to the soil surface by means of a small size spray at a rate of 500 liters per 1 hectare. Thereafter, cultivation was carried out in a greenhouse, and on the 28th day after the treatment, the herbicidal effects and phytotoxicity were examined in accordance with the standards as identified in Table 15.
(§2) The test on herbicidal effects and phytotoxicity against corn (ZEAMX), barnyardgrass (ECHCG), common chickweed (STEME) and common lambsquater (CHEAL) was carried out in the same manner as the above Test Example 1.

barnyardgrass (ECHCG) = assay: as above; format: in vivo, Echinochloa crus-galli; conditions: 28th day
Excerpt: as §1, §2

[2] = tested on: common lambsquater (CHEAL); assay: as above; format: in vivo, Chenopodium album; conditions: 28th day
Excerpt: as §1, §2

common chickweed (STEME) [3] = assay: Test 2 on herbicidal effects against weeds and phytotoxicity by upland soil treatment; format: in vivo, Stellaria media; conditions: 28th day
Excerpt: as §1
(§3) The test on herbicidal effects and phytotoxicity against wheat (TRZAW), common chickweed (STEME) and Persian speedwell (VERPE) was carried out in the same manner as the above Test Example 1.

wheat (TRZAW) [4] = assay: as above; format: in vivo; conditions: 28th day
Excerpt: as §1, §3

[5] = tested on: Persian speedwell (VERPE); assay: as above; format: in vivo; conditions: 28th day
Excerpt: as §1, §3

common chickweed (STEME) [6] = assay: Test 4 on herbicidal effects against weeds and phytotoxicity by upland soil treatment; format: in vivo, Stellaria media; conditions: 28th day
Excerpt: as §1
(§4) The test on herbicidal effects and phytotoxicity against wheat (TRZAW), italian ryegrass (LOLMU), common chickweed (STEME) and common lambsquater (CHEAL) was carried out in the same manner as the above Test Example 1.

italian ryegrass (LOLMU) = assay: as above; format: in vivo; conditions: 28th day
Excerpt: as §1, §4

[7] = tested on: Ipomoea lacunosa L. (IPOLA); assay: Test 1 on herbicidal effects against weeds and phytotoxicity by upland soil treatment; format: in vivo; conditions: 400 gai/ha, 28th day
Excerpt: as §1

velvetleaf (ABUTH) [8] = assay: as above; format: in vivo, Abutilon theophrasti; conditions: 400 gai/ha, 28th day
Excerpt: as §1

wheat (TRZAW) [9] = assay: Test 4 on herbicidal effects against weeds and phytotoxicity by upland soil treatment; format: in vivo; conditions: 1000 gai/ha, 28th day
Excerpt: as §1, §4

velvetleaf (ABUTH) [10] = assay: Test on herbicidal effects against weeds and phytotoxicity by foliage treatment in upland field; format: in vivo, Abutilon theophrasti; conditions: 25 gai/ha, 21st day
Experimental: (§5) In a plastic pot of 11 cm in length×11 cm in width×11 cm in depth, the upland soil was filled, and seeds of corn (ZEAMX), soybean (GLXMA), greenfoxtail (SETVI), shattercane (SORVU), redroot pigweed (AMARE), Ipomoea lacunosa L. (IPOLA) and velvetleaf (ABUTH) were sown and covered with soil.
(§6) Then, cultivation was carried out in a greenhouse for 10 days. Then, a wettable powder prepared in accordance with Formulation Example 1 was weighed so that active ingredients would be the prescribed amounts, diluted with water and uniformly applied on the soil surface by means of a small size spray at a rate of 500 liter per 1 hectare. Thereafter, cultivation was carried out in a greenhouse, and on the 21st day after the treatment, the herbicidal effects and phytotoxicity were examined in accordance with the standards as identified in Table 15.

shattercane (SORVU) = assay: as above; format: in vivo, Sorghum vulgare; conditions: 25 gai/ha, 21st day
Experimental: as §5, §6

redroot pigweed (AMARE) = assay: as above; format: in vivo, Amaranthus retroflexus L.; conditions: 25 gai/ha, 21st day
Experimental: as §5, §6

[11] = tested on: Ipomoea lacunosa L. (IPOLA); assay: as above; format: in vivo; conditions: 25 gai/ha, 21st day
Experimental: as §5, §6

greenfoxtail (SETVI) = assay: as above; format: in vivo, Setaria viridis; conditions: 25 gai/ha, 21st day
Experimental: as §5, §6

corn (ZEAMX) = assay: as above; format: in vivo; conditions: 25 gai/ha, 21st day
Experimental: as §5
(§7) Then, cultivation was carried out in a greenhouse for 10 days. Then, a wettable powder prepared in accordance with Formulation Example 1 was weighed so that active ingredients would be the prescribed amounts, […] spray at a rate of 500 liter per 1 hectare. Thereafter, cultivation was carried out in a greenhouse, and on the 21st day after the treatment, the herbicidal effects and phytotoxicity were examined in accordance with the standards as identified in Table 15.

soybean (GLXMA) = assay: as above; format: in vivo; conditions: 25 gai/ha, 21st day
Experimental: as §5, §7

CCCN(CCC)C(=O)SCc1ccccc1 [Prosulfocarb]
herbicidal effect STEME (common chickweed (STEME) [1]; 1600 gai/ha): 5 (Herbicidal effect or phytotoxicity of at least 50% and less than 60%) | herbicidal effect ECHCG (barnyardgrass (ECHCG); 1600 gai/ha): 2 (Herbicidal effect or phytotoxicity of at least 20% and less than 30%) | herbicidal effect CHEAL ([2]; 1600 gai/ha): 5 (Herbicidal effect or phytotoxicity of at least 50% and less than 60%)

O=C(Nc1ccc(F)cc1)c1cccc(Oc2cccc(C(F)(F)F)c2)n1 [Picolinafen]
herbicidal effect STEME (common chickweed (STEME) [3]; 16 gai/ha): 5 (Herbicidal effect or phytotoxicity of at least 50% and less than 60%) | phytotoxicity TRZAW (wheat (TRZAW) [4]; 16 gai/ha): 0 (Herbicidal effect or phytotoxicity of at least 0% and less than 10%) | herbicidal effect VERPE ([5]; 16 gai/ha): 6 (Herbicidal effect or phytotoxicity of at least 60% and less than 70%)

Cn1nc(C(F)(F)F)c(CS(=O)(=O)C2=NOC(C)(C)C2)c1OC(F)F [3-0054, 3-[(5-difluoromethoxy-1-methyl-3-trifluoromethylpyrazol-4-yl)methylsulfonyl]-4,5-dihydro-5,5-dimethylisoxazole]
herbicidal effect STEME (common chickweed (STEME) [3]; 18.8 gai/ha): 5 (Herbicidal effect or phytotoxicity of at least 50% and less than 60%) | herbicidal effect STEME (common chickweed (STEME) [1]; 62.5 gai/ha): 5 (Herbicidal effect or phytotoxicity of at least 50% and less than 60%) | herbicidal effect STEME (common chickweed (STEME) [6]; 50 gai/ha): 4 (Herbicidal effect or phytotoxicity of at least 40% and less than 50%) | herbicidal effect ECHCG (barnyardgrass (ECHCG); 62.5 gai/ha): 10 (Herbicidal effect or phytotoxicity of 100%) | herbicidal effect LOLMU (italian ryegrass (LOLMU); 50 gai/ha): 8 (Herbicidal effect or phytotoxicity of at least 80% and less than 90%) | herbicidal effect CHEAL ([2]; 62.5 gai/ha): 4 (Herbicidal effect or phytotoxicity of at least 40% and less than 50%) | herbicidal effect VERPE ([5]; 18.8 gai/ha): 7 (Herbicidal effect or phytotoxicity of at least 70% and less than 80%)

COC[C@H](C)N(C(=O)CCl)c1c(C)csc1C [Dimethenamid-P]
herbicidal effect IPOLA [7]: 5 (Herbicidal effect or phytotoxicity of at least 50% and less than 60%) | herbicidal effect ABUTH (velvetleaf (ABUTH) [8]): 7 (Herbicidal effect or phytotoxicity of at least 70% and less than 80%)

CCCN(CCC)c1c([N+](=O)[O-])cc(C(F)(F)F)cc1[N+](=O)[O-] [Trifluralin]
herbicidal effect STEME (common chickweed (STEME) [3]; 250 gai/ha): 10 (Herbicidal effect or phytotoxicity of 100%) | phytotoxicity TRZAW (wheat (TRZAW) [4]; 250 gai/ha): 0 (Herbicidal effect or phytotoxicity of at least 0% and less than 10%) | herbicidal effect VERPE ([5]; 250 gai/ha): 7 (Herbicidal effect or phytotoxicity of at least 70% and less than 80%)

CC(C)N(C(=O)SCC(Cl)=C(Cl)Cl)C(C)C [Triallate]
herbicidal effect STEME (common chickweed (STEME) [6]; 1000 gai/ha): 2 (Herbicidal effect or phytotoxicity of at least 20% and less than 30%) | phytotoxicity TRZAW (wheat (TRZAW) [9]): 0 (Herbicidal effect or phytotoxicity of at least 0% and less than 10%) | herbicidal effect LOLMU (italian ryegrass (LOLMU); 1000 gai/ha): 2 (Herbicidal effect or phytotoxicity of at least 20% and less than 30%)

COCc1cccc(C(O)c2nc(OC)cc(OC)n2)c1NS(=O)(=O)C(F)F (stereo not shown) [Pyrimisulfan]
herbicidal effect ABUTH (velvetleaf (ABUTH) [10]): 10 (Herbicidal effect or phytotoxicity of 100%) | herbicidal effect SORVU (shattercane (SORVU)): 8 (Herbicidal effect or phytotoxicity of at least 80% and less than 90%) | herbicidal effect AMARE (redroot pigweed (AMARE)): 10 (Herbicidal effect or phytotoxicity of 100%) | herbicidal effect IPOLA [11]: 9 (Herbicidal effect or phytotoxicity of at least 90% and less than 100%) | herbicidal effect SETVI (greenfoxtail (SETVI)): 6 (Herbicidal effect or phytotoxicity of at least 60% and less than 70%) | phytotoxicity ZEAMX (corn (ZEAMX)): 2 (Herbicidal effect or phytotoxicity of at least 20% and less than 30%) | phytotoxicity GLXMA (soybean (GLXMA)): 2 (Herbicidal effect or phytotoxicity of at least 20% and less than 30%)
